In patent US20220288156A1, “TREATMENT” (QUEEN MARY UNIVERSITY OF LONDON, priority 2019, published 2022):

Tests used:
[1] = Mean arterial blood pressure in AAC model; type: in vivo, mouse; details: intervention mode; 6 weeks post-AAC surgery
Description: Blood pressure was recorded in anaesthetised mice via intra-arterial cannulation of a carotid artery 6 weeks post-AAC surgery, using a Microtip pressure catheter (Millar instruments). Mice were placed in a supine position on a pre-warmed heating mat (46° C.), and a midline incision made extending the length of the neck with surgical scissors. The large salivary glands were gently moved laterally, and a single carotid artery was located for cannulation. The carotid artery was blunt dissected to remove visceral fats, and then ligated with surgical suture at its most rostral and caudal ends, leaving a space of roughly 2 mm in between. A small incision was made between the two ties using fine dissection spring-tip scissors, and a microtip pressure catheter was inserted into the artery. The region of the artery housing the catheter was tied in place, and the caudal tie loosened to allow blood flow into the pressure catheter. Mice were allowed to recover for 5 min, or until the blood pressure trace steadied. MABP was then averaged across a 30 s period using MATLAB analysis. All efforts were made to ensure mouse body temperature, and levels of anaesthesia in particular, remained constant between animals.

[2] = tested on: AngII-stressed mouse cardiomyocytes; experiment: Western blot of TCA cycle enzymes in AngII-stressed cardiomyocytes; type: cell-based; details: Western blot densitometry
Description: Following 5 days culture at 37° C., 5% CO2, primary mouse cardiomyocytes were serum starved for 24 h in a 0.5 FBS-DMEM media. On day 6 cells were washed and refed with complete cardiomyocyte growth medium plus or minus 1 μM angiotensin II (Alfa Aesar), and this was repeated on day 7. In tandem to angiotensin II treatment, cells were either treated with vehicle or low dose Cilengitide (20 nM) (Bachem). On 8-day cardiomyocytes were lysed for RNA analysis.
Cardiomyocytes were prepared and treated as above. At the end of the experiment, cells were lysed with RIPA buffer for 10 min on ice and the cell debris pelleted by centrifugation of the lysate at 9300 g for 10 min at 4° C. Protein concentration was determined from the cell supernatant and 20 μg protein loaded onto 10% gels. Membranes were probed for succinate dehydrogenase (Abcam, ab178423), pyruvate dehydrogenase (Abcam, ab131263), aconitase (Abcam, ab129069) and GAPDH (Millipore, AB2302). Densitometric readings of band intensities were obtained using the JmageJ™ software.

## CC(C)[C@H]1C(=O)N[C@@H](CCCN=C(N)N)C(=O)NCC(=O)N[C@@H](CC(=O)O)C(=O)N[C@H](Cc2ccccc2)C(=O)N1C [Cilengitide, c(f*VRGD)]
[1]
  mean arterial blood pressure (MABP): not affected
[2]
  pyruvate dehydrogenase protein expression: rescues the elevated expression
